# In ChEMBL document CHEMBL3745636, “Dibenz[b,f]oxepin and Antimycobacterial Chalcone Constituents of Empetrum nigrum” (J Nat Prod, 2015):
# pIC50: −log10 of the molar value.
# Key:
# [1] = test system: Mycobacterium tuberculosis; test: Antimycobacterial activity against Mycobacterium tuberculosis H37Ra ATCC 25177 assessed as growth inhibition after 24 to 168 hrs by microplate resazurin assay; type: functional, organism-based
# [2] = test system: HEK293; test: Cytotoxicity against human HEK293 cells assessed as cell viability after 24 hrs by cell titer-blue assay; type: cell-based; settings: HEK293, 24 h
Structure (SMILES),pIC50 [1],MIC90 [1],pIC50 [2]
CC1(C)CC[C@]2(CO)CC[C@]3(C)C(=CC[C@@H]4[C@@]5(C)CC[C@H](O)C(C)(C)[C@@H]5CC[C@]43C)[C@@H]2C1 [ERYTHRODIOL],3.80,> 903 µM,3.21
COc1cc(CCc2ccccc2O)cc(OC)c1OC,3.75,694 µM,3.95
COc1cc(CCc2ccccc2O)cc(O)c1OC,3.05,> 1460 µM,3.53
COc1c(O)cc2c(c1OC)Oc1ccccc1CC2,4.03,367 µM,3.78
COc1c(O)cc2c(c1OC)-c1c(O)cccc1CC2,3.95,734 µM,3.54
O=C(CCc1ccccc1)c1ccc(O)cc1O,4.48,206 µM,3.60
"O=C(/C=C/c1ccccc1)c1ccc(O)cc1O [2',4'-DIHYDROXYCHALCONE]",4.62,104 µM,3.96
COc1cc2c(c(O)c1OC)Oc1ccccc1CC2,3.98,367 µM,3.45
CC1(C)CC[C@]2(C(=O)O)CC[C@]3(C)C(=CC[C@@H]4[C@@]5(C)CC[C@H](O)C(C)(C)[C@@H]5CC[C@]43C)[C@@H]2C1 [OLEANOLIC_ACID],3.67,> 876 µM,3.48
